Assay results: PubChem BioAssay (NCI)
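Where inhibition never reached the appropriate level, the endpoint shown equals the highest concentration tested. Otherwise, values were interpolated linearly from a five-concentration, 48-hour dose response in 96-well plates. GI50 marks 50% less growth. The concentration for full growth arrest is given as TGI.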

Experiments:
Experiment in all cases: NCI-60 cell line screen, 48 h; in the data active = GI50 below about 0.43 µM; inactive = the rest
BT-549 breast = tested on: BT-549 breast
RPMI-8226 leukemia = tested on: RPMI-8226 leukemia
UACC-62 melanoma = tested on: UACC-62 melanoma
RXF 393 renal = tested on: RXF 393 renal
KM12 colon = tested on: KM12 colon
NCI-H226 lung = tested on: NCI-H226 lung
LOX IMVI melanoma = tested on: LOX IMVI melanoma
HOP-92 NSCLC = tested on: HOP-92 NSCLC
OVCAR-3 ovarian = tested on: OVCAR-3 ovarian
HCT-116 colon = tested on: HCT-116 colon
SN12C renal = tested on: SN12C renal
MDA-MB-435 = tested on: MDA-MB-435
PC-3 prostate = tested on: PC-3 prostate
A498 renal = tested on: A498 renal
SF-539 CNS = tested on: SF-539 CNS
SNB-75 CNS = tested on: SNB-75 CNS
HCC-2998 colon = tested on: HCC-2998 colon
MOLT-4 leukemia = tested on: MOLT-4 leukemia
MCF7 breast = tested on: MCF7 breast
T-47D breast = tested on: T-47D breast
COLO 205 colon = tested on: COLO 205 colon
SK-MEL-28 melanoma = tested on: SK-MEL-28 melanoma
OVCAR-8 ovarian = tested on: OVCAR-8 ovarian
TK-10 renal = tested on: TK-10 renal
HOP-62 NSCLC = tested on: HOP-62 NSCLC
NCI-H522 lung = tested on: NCI-H522 lung
M14 melanoma = tested on: M14 melanoma
DU-145 prostate = tested on: DU-145 prostate
U251 CNS = tested on: U251 CNS
K-562 leukemia = tested on: K-562 leukemia
SNB-19 CNS = tested on: SNB-19 CNS
NCI/ADR-RES ovarian = tested on: NCI/ADR-RES ovarian
A549 NSCLC = tested on: A549 NSCLC
CCRF-CEM leukemia = tested on: CCRF-CEM leukemia
MDA-MB-231 breast = tested on: MDA-MB-231 breast
NCI-H23 lung = tested on: NCI-H23 lung
UACC-257 melanoma = tested on: UACC-257 melanoma
786-0 renal = tested on: 786-0 renal
SF-268 CNS = tested on: SF-268 CNS
HT29 colon = tested on: HT29 colon
SK-MEL-5 melanoma = tested on: SK-MEL-5 melanoma
HS 578T breast = tested on: HS 578T breast
MALME-3M melanoma = tested on: MALME-3M melanoma
CAKI-1 renal = tested on: CAKI-1 renal
SK-OV-3 ovarian = tested on: SK-OV-3 ovarian
UO-31 renal = tested on: UO-31 renal
SR leukemia = tested on: SR leukemia
OVCAR-4 ovarian = tested on: OVCAR-4 ovarian
IGROV1 ovarian = tested on: IGROV1 ovarian
SK-MEL-2 melanoma = tested on: SK-MEL-2 melanoma
HL-60(TB) leukemia = tested on: HL-60(TB) leukemia
ACHN renal = tested on: ACHN renal
NCI-H460 lung = tested on: NCI-H460 lung
HCT-15 colon = tested on: HCT-15 colon
SF-295 CNS = tested on: SF-295 CNS
SW-620 colon = tested on: SW-620 colon
OVCAR-5 ovarian = tested on: OVCAR-5 ovarian

COc1ccc(-c2nsc3c2NC(=O)CC3c2ccc(F)cc2)cc1 (centres undefined)
49 µM: TGI (HOP-62 NSCLC)
8.39 µM: TGI (COLO 205 colon)
67.8 µM: TGI (SF-539 CNS)
15.7 µM: TGI (SNB-75 CNS)
15.6 µM: TGI (NCI-H522 lung)
inactive: GI50 (BT-549 breast) 7.72 µM | GI50 (RPMI-8226 leukemia) 4.94 µM | GI50 (UACC-62 melanoma) 4.66 µM | GI50 (RXF 393 renal) 5.91 µM | GI50 (KM12 colon) 3.13 µM | GI50 (NCI-H226 lung) 8.67 µM | GI50 (LOX IMVI melanoma) 7.18 µM | GI50 (HOP-92 NSCLC) 1.77 µM | GI50 (OVCAR-3 ovarian) 3.79 µM | GI50 (HCT-116 colon) 3.95 µM | GI50 (SN12C renal) > 23.4 µM | GI50 (MDA-MB-435) 0.513 µM | GI50 (PC-3 prostate) 3.33 µM | GI50 (A498 renal) 2.37 µM | GI50 (SF-539 CNS) 3.56 µM | GI50 (SNB-75 CNS) 2.35 µM | GI50 (HCC-2998 colon) > 21.7 µM | GI50 (MOLT-4 leukemia) 0.577 µM | GI50 (MCF7 breast) 3.29 µM | GI50 (T-47D breast) 4.64 µM | GI50 (COLO 205 colon) 2.49 µM | GI50 (SK-MEL-28 melanoma) 4.74 µM | GI50 (OVCAR-8 ovarian) 5.66 µM | GI50 (TK-10 renal) 6.88 µM | GI50 (HOP-62 NSCLC) 7.06 µM | GI50 (NCI-H522 lung) 2.52 µM | GI50 (M14 melanoma) 3.74 µM | GI50 (DU-145 prostate) 5.31 µM | GI50 (U251 CNS) 4 µM | GI50 (K-562 leukemia) 1.37 µM | GI50 (SNB-19 CNS) 7.75 µM | GI50 (NCI/ADR-RES ovarian) 2.57 µM | GI50 (A549 NSCLC) 4.58 µM | GI50 (CCRF-CEM leukemia) 5.27 µM | GI50 (MDA-MB-231 breast) 6.68 µM | GI50 (NCI-H23 lung) 6.1 µM | GI50 (UACC-257 melanoma) 16.6 µM | GI50 (786-0 renal) 15.2 µM | GI50 (SF-268 CNS) 10.2 µM | GI50 (HT29 colon) 2.84 µM | GI50 (SK-MEL-5 melanoma) 3.22 µM | GI50 (HS 578T breast) 4.48 µM | GI50 (MALME-3M melanoma) 10.3 µM | GI50 (CAKI-1 renal) 2.28 µM | GI50 (SK-OV-3 ovarian) 4.59 µM | GI50 (UO-31 renal) 4.59 µM | GI50 (SR leukemia) 1.1 µM | GI50 (OVCAR-4 ovarian) 12.7 µM | GI50 (IGROV1 ovarian) 5.44 µM | GI50 (SK-MEL-2 melanoma) 3.22 µM | GI50 (HL-60(TB) leukemia) 0.598 µM | GI50 (ACHN renal) 6.73 µM | GI50 (NCI-H460 lung) 3.46 µM | GI50 (HCT-15 colon) 2.16 µM | GI50 (SF-295 CNS) 4.08 µM | GI50 (SW-620 colon) 2.77 µM | GI50 (OVCAR-5 ovarian) 5.94 µM
18.4 µM: TGI (CAKI-1 renal)
> 77.5 µM: TGI (RXF 393 renal)
23.7 µM: TGI (HOP-92 NSCLC)
> 21.1 µM: TGI (HL-60(TB) leukemia)
> 26.9 µM: TGI (NCI/ADR-RES ovarian)
12 µM: TGI (SK-MEL-2 melanoma)
> 29.1 µM: TGI (SF-295 CNS)
> 100 µM: TGI (BT-549 breast) | TGI (RPMI-8226 leukemia) | TGI (UACC-62 melanoma) | TGI (KM12 colon) | TGI (NCI-H226 lung) | TGI (LOX IMVI melanoma) | TGI (OVCAR-3 ovarian) | TGI (HCT-116 colon) | TGI (SN12C renal) | TGI (PC-3 prostate) | TGI (A498 renal) | TGI (HCC-2998 colon) | TGI (MOLT-4 leukemia) | TGI (MCF7 breast) | TGI (T-47D breast) | TGI (SK-MEL-28 melanoma) | TGI (OVCAR-8 ovarian) | TGI (TK-10 renal) | TGI (M14 melanoma) | TGI (DU-145 prostate) | TGI (U251 CNS) | TGI (K-562 leukemia) | TGI (SNB-19 CNS) | TGI (A549 NSCLC) | TGI (CCRF-CEM leukemia) | TGI (MDA-MB-231 breast) | TGI (NCI-H23 lung) | TGI (UACC-257 melanoma) | TGI (786-0 renal) | TGI (SF-268 CNS) | TGI (SK-MEL-5 melanoma) | TGI (MALME-3M melanoma) | TGI (SK-OV-3 ovarian) | TGI (UO-31 renal) | TGI (SR leukemia) | TGI (OVCAR-4 ovarian) | TGI (IGROV1 ovarian) | TGI (ACHN renal) | TGI (NCI-H460 lung) | TGI (HCT-15 colon) | TGI (SW-620 colon) | TGI (OVCAR-5 ovarian)
27.6 µM: TGI (HT29 colon)
2.43 µM: TGI (MDA-MB-435)
> 73.8 µM: TGI (HS 578T breast)
